Consider 11 compounds from patent US20250059171A1 (Hoffmann-La Roche Inc., priority 2021, published 2025).

Like-named read-outs stand apart in the source and are kept apart here.

One test deals with HCoV-229E 3CLpro (Human coronavirus 229E, UniProt P0C6X1). Put plainly: HCoV-229E 3CLpro inhibition assay (FRET). In kind it is biochemical.
In another test the target is SARS-CoV-2 3CLpro (Severe acute respiratory syndrome coronavirus 2, UniProt P0DTD1). The test is described as follows: biochemical.
The next test deals with SARS-CoV 3CLpro (Severe acute respiratory syndrome coronavirus, UniProt P0C6X7). Put plainly: biochemical.
A further test deals with MERS-CoV 3CLpro (Middle East respiratory syndrome-related coronavirus, UniProt K9N7C7). The test is described as follows: biochemical.
MERS-CoV 3CLpro, sequence (K9N7C7 3248-3553): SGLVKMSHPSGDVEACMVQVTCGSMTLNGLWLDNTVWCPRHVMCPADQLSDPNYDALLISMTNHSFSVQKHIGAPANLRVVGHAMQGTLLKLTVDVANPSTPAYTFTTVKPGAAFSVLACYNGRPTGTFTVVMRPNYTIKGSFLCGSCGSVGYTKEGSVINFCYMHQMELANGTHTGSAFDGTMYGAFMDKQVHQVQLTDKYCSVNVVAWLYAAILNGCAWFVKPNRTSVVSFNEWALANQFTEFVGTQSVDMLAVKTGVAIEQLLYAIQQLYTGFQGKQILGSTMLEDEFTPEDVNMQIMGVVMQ

HCoV-229E 3CLpro, sequence (P0C6X1 2966-3267): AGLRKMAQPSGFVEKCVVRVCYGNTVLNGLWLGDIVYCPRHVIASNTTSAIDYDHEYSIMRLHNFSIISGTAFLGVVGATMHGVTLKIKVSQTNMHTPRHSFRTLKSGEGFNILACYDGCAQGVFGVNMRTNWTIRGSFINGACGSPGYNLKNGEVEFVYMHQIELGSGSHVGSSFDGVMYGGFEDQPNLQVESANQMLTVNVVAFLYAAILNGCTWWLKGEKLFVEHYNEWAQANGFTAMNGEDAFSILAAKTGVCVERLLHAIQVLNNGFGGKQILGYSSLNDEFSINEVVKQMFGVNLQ

The IC50 is the concentration that gives 50% inhibition. For the compound `CC[C@H](C)[C@H](NC(=O)C(C)(F)F)C(=O)N1C[C@@H]2CCC[C@@H]2[C@H]1C(=O)NN(C[C@@H]1CCNC1=O)C(=O)[C@H](F)Cl` [Example 40, N-[(1S,2S)-1-[(3S,3aS,6aR)-3-[[[(2R)-2-chloro-2-fluoro-acetyl]-[[(3S)-2-oxopyrrolidin-3-yl]methyl]amino]carbamoyl]-3,3a,4,5,6,6a-hexahydro-1H-cyclopenta[c]pyrrole-2-carbonyl]-2-methyl-butyl]-2,2-difluoro-propanamide], the concentration for half-maximal inhibition (IC50) on HCoV-229E 3CLpro came out at 27 nM; on SARS-CoV-2 3CLpro, 21 nM; against SARS-CoV 3CLpro, 13 nM; against MERS-CoV 3CLpro, 50 nM.
For the compound `CC[C@H](C)[C@H](NC(=O)C(C)C)C(=O)N1C[C@@H]2CCC[C@@H]2[C@H]1C(=O)NN(C[C@@H]1CCNC1=O)C(=O)[C@H](F)Cl` [Example 47, N-[(1S,2S)-1-[(3S,3aS,6aR)-3-[[[(2R)-2-chloro-2-fluoro-acetyl]-[[(3S)-2-oxopyrrolidin-3-yl]methyl]amino]carbamoyl]-3,3a,4,5,6,6a-hexahydro-1H-cyclopenta[c]pyrrole-2-carbonyl]-2-methyl-butyl]-2-methyl-propanamide], the IC50 worked out at 26 nM at HCoV-229E 3CLpro, 7 nM against SARS-CoV-2 3CLpro, 12 nM against SARS-CoV 3CLpro and 76 nM on MERS-CoV 3CLpro.
`CC[C@H](C)[C@H](NC(=O)C1(F)CC1)C(=O)N1C[C@@H]2CCC[C@@H]2[C@H]1C(=O)NN(C[C@@H]1CCNC1=O)C(=O)[C@H](F)Cl` [Example 79, N-[(1S,2S)-1-[(3S,3aS,6aR)-3-[[[(2R)-2-chloro-2-fluoro-acetyl]-[[(3S)-2-oxopyrrolidin-3-yl]methyl]amino]carbamoyl]-3,3a,4,5,6,6a-hexahydro-1H-cyclopenta[c]pyrrole-2-carbonyl]-2-methyl-butyl]-1-fluoro-cyclopropanecarboxamide]: the concentration for half-maximal inhibition (IC50) was 39 nM at HCoV-229E 3CLpro, 7.1 nM against SARS-CoV-2 3CLpro, 11 nM against SARS-CoV 3CLpro and 114 nM on MERS-CoV 3CLpro.
On the same counts, the results for `CC[C@H](C)[C@H](NC(=O)C1(F)CC1)C(=O)N1C[C@@H]2CCC[C@@H]2[C@H]1C(=O)NN(C[C@@H]1CCCNC1=O)C(=O)[C@H](F)Cl` [Example 170a, N-[(1S,2S)-1-[(3S,3aS,6aR)-3-[[[(2R)-2-chloro-2-fluoro-acetyl]-[[(3S)-2-oxo-3-piperidyl]methyl]amino]carbamoyl]-3,3a,4,5,6,6a-hexahydro-1H-cyclopenta[c]pyrrole-2-carbonyl]-2-methyl-butyl]-1-fluoro-cyclopropanecarboxamide] are 107 nM, 16 nM, 25 nM and 276 nM.
As to `CC[C@H](C)[C@H](NC(=O)[C@@H](F)Cl)C(=O)N1C[C@@H]2CCC[C@@H]2[C@H]1C(=O)NN(C[C@H]1CCCNC1=O)C(=O)[C@@H](F)Cl` [Example 193, (2S)—N-[(1S,2S)-1-[(3S,3aS,6aR)-3-[[[(2S)-2-chloro-2-fluoro-acetyl]-[[(3R)-2-oxo-3-piperidyl]methyl]amino]carbamoyl]-3,3a,4,5,6,6a-hexahydro-1H-cyclopenta[c]pyrrole-2-carbonyl]-2-methyl-butyl]-2-chloro-2-fluoro-acetamide], the 50% inhibitory concentration (IC50) amounted to 49 nM on HCoV-229E 3CLpro, 17 nM against SARS-CoV-2 3CLpro, 33 nM against SARS-CoV 3CLpro and 110 nM against MERS-CoV 3CLpro.
Consider `CSCC[C@H](NC(=O)C(F)(F)F)C(=O)N1C[C@H]2[C@@H]([C@H]1C(=O)NN(C[C@@H]1CCNC1=O)C(=O)[C@H](F)Cl)C2(C)C` [Example 69, N-[(1S)-1-[(1R,2S,5S)-2-[[[(2R)-2-chloro-2-fluoro-acetyl]-[[(3S)-2-oxopyrrolidin-3-yl]methyl]amino]carbamoyl]-6,6-dimethyl-3-azabicyclo[3.1.0]hexane-3-carbonyl]-3-methylsulfanyl-propyl]-2,2,2-trifluoro-acetamide], for which the IC50 against HCoV-229E 3CLpro amounted to 53 nM; against SARS-CoV-2 3CLpro, 11 nM; against SARS-CoV 3CLpro it was 28 nM; on MERS-CoV 3CLpro, 249 nM.
The matching figures for `CC(C)(C)[C@H](NC(=O)C(F)(F)F)C(=O)N1C[C@H]2[C@@H]([C@H]1C(=O)NN(CCC(N)=O)C(=O)[C@H](F)Cl)C2(C)C` [Example 87, 3-[[(2R)-2-chloro-2-fluoro-acetyl]-[[(1R,2S,5S)-3-[(2S)-3,3-dimethyl-2-[(2,2,2-trifluoroacetyl)amino]butanoyl]-6,6-dimethyl-3-azabicyclo[3.1.0]hexane-2-carbonyl]amino]amino]propanamide]: 19 nM, 14 nM, 9.3 nM and 73 nM.
Turning to `CC(C)(C)[C@H](NC(=O)C1(F)CCC1)C(=O)N1C[C@H]2[C@@H]([C@H]1C(=O)NN(C[C@@H]1CCNC1=O)C(=O)[C@H](F)Cl)C2(C)C` [Example 91, N-[(1S)-1-[(1R,2S,5S)-2-[[[(2R)-2-chloro-2-fluoro-acetyl]-[[(3S)-2-oxopyrrolidin-3-yl]methyl]amino]carbamoyl]-6,6-dimethyl-3-azabicyclo[3.1.0]hexane-3-carbonyl]-2,2-dimethyl-propyl]-1-fluoro-cyclobutanecarboxamide], the IC50 on HCoV-229E 3CLpro was 39 nM; at SARS-CoV-2 3CLpro, 12 nM; at SARS-CoV 3CLpro it was 15 nM; against MERS-CoV 3CLpro it was 115 nM.
Consider `CC[C@H](C)[C@H](NC(=O)C(C)(C)C)C(=O)N1C[C@H]2[C@@H]([C@H]1C(=O)NN(C[C@@H]1CCNC1=O)C(=O)[C@H](F)Cl)C2(C)C` [Example 52, N-[(1S,2S)-1-[(1R,2S,5S)-2-[[[(2R)-2-chloro-2-fluoro-acetyl]-[[(3S)-2-oxopyrrolidin-3-yl]methyl]amino]carbamoyl]-6,6-dimethyl-3-azabicyclo[3.1.0]hexane-3-carbonyl]-2-methyl-butyl]-2,2-dimethyl-propanamide], for which the half-maximal inhibitory concentration (IC50) against HCoV-229E 3CLpro came to 22 nM; on SARS-CoV-2 3CLpro it was 10 nM; against SARS-CoV 3CLpro, 15 nM; against MERS-CoV 3CLpro, 57 nM.
The matching figures for `CC(C)(C)[C@H](NC(=O)C1CC1(F)F)C(=O)N1C[C@@H]2CCC[C@@H]2[C@H]1C(=O)NN(C[C@@H]1CCNC1=O)C(=O)[C@H](F)Cl` (mixture of isomers) [Example 34, Rac-2,2-difluoro-N-[(1S)-2,2-dimethyl-1-[(3S,3aS,6aR)-3-[[[(2R)-2-chloro-2-fluoro-acetyl]-[[(3S)-2-oxopyrrolidin-3-yl]methyl]amino]carbamoyl]-3,3a,4,5,6,6a-hexahydro-1H-cyclopenta[c]pyrrole-2-carbonyl]propyl]cyclopropanecarboxamide]: 23 nM, 8 nM, 12 nM and 66 nM.
Turning to `CCC(C)(C)[C@H](NC(=O)C1(F)CC1)C(=O)N1C[C@@H]2CCC[C@@H]2[C@H]1C(=O)NN(C[C@@H]1CCNC1=O)C(=O)[C@H](F)Cl` [Example 149, N-[(1S)-1-[(3S,3aS,6aR)-3-[[[(2R)-2-chloro-2-fluoro-acetyl]-[[(3S)-2-oxopyrrolidin-3-yl]methyl]amino]carbamoyl]-3,3a,4,5,6,6a-hexahydro-1H-cyclopenta[c]pyrrole-2-carbonyl]-2,2-dimethyl-butyl]-1-fluoro-cyclopropanecarboxamide], the IC50 was determined as 45 nM against HCoV-229E 3CLpro, 6 nM at SARS-CoV-2 3CLpro (read-out: IC50 in SARS-CoV-2 3CLpro assay), 15 nM against SARS-CoV 3CLpro and 139 nM at MERS-CoV 3CLpro.
